Experiments:
VCaP cells = assay: Cellular growth inhibition assay for VCaP cells, CellTiter-Glo; assay type: cell-based, human; details: 72 hours treatment, CellTiter-Glo 2.0
Method in brief: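 GI50 values come from four-parameter curve fits of luminescence data normalized to a zero baseline. Compound, in medium with 0.5% DMSO, was added one day after plating and left for 72 h before CellTiter-Glo 2.0 addition.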

[1] = test system: T-Rex 293 cell line SC cells lacking increased expression of progesterone receptor isoform B protein; assay: Cellular growth inhibition, T-Rex 293 SC cells without doxycycline, Example 45; assay type: cell-based; details: T-Rex 293 SC cells not exposed to doxycycline, 72 hours treatment, CellTiter-Glo 2.0

Row | GI50 (VCaP cells) | GI50 (VCaP cells; Homo sapiens, VCaP, 72 h) | Structure (SMILES) | GI50 [1]
1 | < 500 nM | – | Cc1sc2c(c1C)C(c1ccc(CC3CC4(CCN(c5ccc(C(=O)N[C@H]6C(C)(C)[C@H](Oc7ccc(C#N)c(Cl)c7)C6(C)C)cn5)CC4)C3)cc1)=N[C@@H](Cc1ncco1)c1nnc(C)n1-2 [Compound I-143] | < 500 nM
2 | – | < 500 nM | Cc1sc2c(c1C)C(c1ccc(N3CC(N4CCN(c5ncc(C(=O)N[C@H]6C(C)(C)[C@H](Oc7ccc(C#N)c(Cl)c7)C6(C)C)cn5)CC4)C3)cc1)=NC(Cc1ncco1)c1nnc(C)n1-2 (stereo partly shown) [Compound I-208] | < 500 nM

— patent US20260062422A1 (Halda Therapeutics OpCo, Inc., priority 2022, published 2026)
